{
  "source": "paper PMC10451668",
  "about": "“Natural Acetogenins, Chatenaytrienins-1, -2, -3 and -4, Mitochondrial Potential Uncouplers and Autophagy Inducers—Promising Anticancer Agents” (Antioxidants, 2023)",
  "type_in_all_cases": "cell-based, human",
  "key": {"[1]": {"experiment": "Cytotoxicity assay (7-AAD viability, flow cytometry)", "details": "human; normal fibroblasts; ± standard error of the mean, 95% CI in parenthesis"}, "Jurkat cell lysates": {"system": "Jurkat cell lysates", "experiment": "Multiplex analysis of signaling, genotoxicity and early apoptosis proteins (MILLIPLEX MAP, Luminex)", "description": "Multiplex analysis was performed according to a previously published method. MILLIPLEX®MAP technology is used to determine the total protein or phosphorylated protein levels of various biological analytes, such as kinases or signaling proteins, including CREB, ERK/MAP, p70 S6, p21, p38, PI3K/AKT/mTOR, JNK (A), p53, MDM2, Bcl-2/Bax, STAT3 and STAT5, Nf-kB, Caspase 3-8-9, JNK, ATM, Chk1, Chk2, and H2AX, in cell lysates using the Luminex® system ((MILLIPLEX Multi-Pathway Magnetic Bead 9-Plex—Cell Signaling Multiplex Assay kit, Merk, Germany). This MILLIPLEX®MAP technology provides an alternative to Western blotting and immunoprecipitation and has several important advantages, such as more accurate measurement of small amounts of protein and the elimination of analyte loss during sample preparation. The multiplex immunoassay (MILLIPLEX 48-680MAG; Merck Millipore, Germany) was performed in Millipore 96-well plates to detect changes in concentrations of phosphorylated and unphosphorylated proteins p53, MDM2, p21, p38, PI3K/AKT/mTOR, Bcl-2/Bax, STAT3 and STAT5, Nf-kB, Caspase 3 -8-9, CREB, ERK/MAP, p70 S6, JNK, ATM, Chk1, Chk2, and H2AX in Jurkat cell lysates.\nThe levels of phosphorylated and non-phosphorylated proteins were analyzed using MILLIPLEX® map technology to study the analytes in the same sample within a fairly short time. Various deviations in protein concentration due to external factors or detection errors that could affect the results of the experiment were thereby reduced to zero.\nThe expression of p53, MDM2, p21, p38, PI3K/AKT/mTOR, Bcl-2/Bax, STAT3 and STAT5, Nf-kB, Caspase 3-8-9, CREB, ERK/MAP, p70 S6, JNK, ATM, Chk1, Chk2, and H2AX proteins in lysate samples of Jurkat tumor cells were studied using Luminex technology with the MILLIPLEX® MAP 9-Plex Multi-Pathway 9-plex Magnetic Bead Kit. This bead-based assay involved color-coded fluorescent particles pre-coated with specific antibodies targeting 9 major kinases in signaling pathways."}, "Jurkat cells [2]": {"system": "Jurkat cells", "experiment": "Assessment of autophagy (anti-LC3/FITC, flow cytometry)", "details": "0.5 CC50, 48 h", "description": "Autophagy is involved in various physiological processes and its changes are associated with the pathogenesis of diseases such as neurodegenerative diseases, cardiovascular complications, cancer, and infectious diseases, as well as with physiological processes such as innate and specific immunity, pathogen clearance, lymphocyte selection, antigen presentation, and production of immunoglobulins. Therefore, the determination of LC3 protein inside autophagosomes without the cytosolic form of LC3-I at the stage of selective cell permeability was measured using flow cytometry. Thus, using the FlowCellect™ LC3-GFP Reporter Autophagy Assay Kit (FCCH100170 and FCCH100181), flow cytometry allowed for a rapid assay that could be combined with other phenotypic and functional markers to characterize different cell populations.\nCanonical autophagy is associated with the conversion of LC3 protein (an autophagosome marker) from the cytoplasmic form of LC3I to the lipid-bound form of LC3II, which is associated with the membranes of maturing autophagosomes. The autophagy process can be conveniently classified into several stages. First, induction and translocation of the cytoplasmic LC3 protein occur due to the influence of external stimuli (adverse environmental influences)—the process is initiated by external/internal stimuli (for example, nutrient depletion or hypoxia). Then, the formation of autophagosomes begins, which are double-membrane vesicles that include the LC3 protein. This protein regulates the fusion of autophagosomes and lysosomes. It exists in two fractions—cytoplasmic LC3-I and LC3-II, isolated in the autophagosomal membrane. The LC3-II protein fraction was specified in our work, as its detection is a reliable indicator of the processes of autophagy in the cell."}, "Jurkat cells [3]": {"system": "Jurkat cells", "experiment": "Oxidative stress and early apoptosis (MitoSOX Red and annexin V, MitoStress Kit)", "details": "compound at CC50, 4 h", "description": "Changes in the mitochondrial membrane potential (ΔΨ) in Jurkat cells induced by treatment with the synthesized compounds were detected using MitoSOX Red, a positively charged probe that accumulates rapidly in mitochondria and as such can be used to detect superoxide/ROS production within mitochondria using fluorometry, microscopy, or flow cytometry. Live cells induced a low level of MitoSOX Red fluorescence, while cells with scattered mitochondrial membrane potential caused much higher MitoSOX Red fluorescence. Annexin V is a dye commonly used to detect early signs of apoptosis. […] Thus, using two different dyes, MitoSOX Red and annexin V (CF488A), in the FlowCellect™ MitoStress Kit (FCCH100109), we analyzed the mitochondrial membrane potential dissipation and associated apoptosis in Jurkat cells in response to the synthesized chatenaytrienins.\nTherefore, simultaneous detection of mitochondrial superoxide generation (detected by MitoSOX Red membrane-penetrating dye) and expression of phosphatidylserine on the cell surface of apoptotic cells (assessed by binding of annexin V) in the same cell sample provides an accurate evaluation of the ability of the test compound to initiate oxidative stress in cell culture and induce apoptosis."}, "Jurkat tumor cell line": {"system": "Jurkat tumor cell line", "experiment": "Assessment of cytochrome c loss (FlowCellect Cytochrome c Kit)", "details": "compound at CC50, incubation 3 h, anti-cytochrome c-FITC", "description": "Quantification of cytochrome c release from mitochondria in apoptotic cells was presented to detect the mitochondrial pathway of apoptosis in cells using flow cytometry with the FlowCellect™ Cytochrome c Kit (FCCH100110). For this, cells were treated with FITC-conjugated antibodies against cytochrome c and control anti-IgG1-FITC, together with the use of an optimized fixation procedure, permeabilization, and blocking buffer (Luminex®, USA). […] Jurkat cells were incubated for 4 h with the synthesized substances at a concentration corresponding to their 24-h CC50 in a culture plate and assessed using the NovoCyte Penteon Flow Cytometer System (Agilent, 5301 Stevens Creek Blvd., Santa Clara, CA, USA). The obtained data were processed using NovoExpress® software (ACEA)."}},
  "data": [
    {"compound": "CCCCCCCCCC/C=C\\CC/C=C\\CC/C=C\\CCCCCCCCCCC1=C[C@H](C)OC1=O", "note": "[compound 1, chatenaytrienin-1]", "values": [
      {"measurement": "CC50", "setting": "[1]", "value": "690 ± 40", "unit": "nM"},
      {"measurement": "expression of caspase-8", "setting": "Jurkat cell lysates; 6 h and 12 h", "value": "did not significantly affect"},
      {"measurement": "levels of Akt, p38, and CREB", "setting": "Jurkat cell lysates; compound at CC50, 4 h", "value": "most pronouncedly suppressed"},
      {"measurement": "levels of all types of kinase proteins (CREB, JNK, NFkB, p38, ERK1/2, Akt, p70S6K, STAT3, STAT5)", "setting": "Jurkat cell lysates; compound at CC50, 4 h, MFI versus intact cells", "value": "most pronouncedly reduced"},
      {"measurement": "cleaved caspase-9", "setting": "Jurkat cell lysates; especially after 12 h, level exceeded control", "value": "promoted the accumulation"},
      {"measurement": "level of BAD protein", "setting": "Jurkat cell lysates; first 6 h, within 12 h began to increase again, not reaching control", "value": "decreased"},
      {"measurement": "cells with autophagy (gate M3-2)", "setting": "Jurkat cells [2]", "value": 96.26, "unit": "%"},
      {"measurement": "cells demonstrating oxidative stress along with the marker of early apoptosis, annexin", "setting": "Jurkat cells [3]; MitoSOX Red and annexin V", "value": 10.53, "unit": "%"},
      {"measurement": "cells in early apoptosis", "setting": "Jurkat cells [3]; annexin V", "value": 75, "unit": "%"},
      {"measurement": "cells with cytochrome c released into the cytoplasm (Negative gate)", "setting": "Jurkat tumor cell line", "value": 61.67, "unit": "%"}
    ]}
  ]
}
